Data taken from publication PMC6412019, “Discovery of NV-5138, the first selective Brain mTORC1 activator” (Scientific Reports, 2019).

Columns and labels:
[1] = test system: panel of 107 adverse drug effect targets; assay: Eurofins/Cerep off-target selectivity panel; settings: up to 300 µM; threshold >50% binding/response; incl. AMPA, kainate and NMDA receptor isoforms
Procedure: While mTORC1 activation by NV-5138 appears dependent upon an intact Sestrins/GATOR2 pathway and not upon protein incorporation or transamination by BCAT, NV-5138 was tested for off-target activity in the Eurofins/Cerep panel of over 100 potential targets. The selectivity panel included AMPA, kainate and NMDA receptor isoforms (Supplementary Table 2a–c). […] As observed in the Eurofins/Cerep panel, there was no effect of NV-5138 at 300 µM final concentration (data not shown).
NV-5138 was tested in duplicate at a concentration of 300 µM for potential interaction with a panel of 107 adverse drug effect targets including 21 transporters, receptors, ion channels and enzymes expressed in the CNS (Eurofins Pharma Discovery Services). The threshold to exclude a significant interaction was set as a binding/response of >50%.

[2] = test system: Synapsin1, GluR1 and PSD95; assay: Synaptic proteins in rat prefrontal cortex synaptoneurosomes (immunoblot); type: in vivo; settings: 24 h after single 160 mg/kg PO
Procedure: We investigated the activation of mTORC1 in the brain further by determining the time course of mTORC1 activation following a single administration of NV-5138. […] The decrease in mTORC1 signaling in the NV-5138 treated group 24 h following administration while significant was not consistently observed. […] It should be noted that while the activation of mTORC1 in the prefrontal cortex correlated with compound exposure, the increased expression of synaptic proteins was observed well after compound levels have dropped and mTORC1 activity was back to baseline/vehicle levels.
After compound administration, animals were sacrificed by decapitation using a guillotine, immediately Specific regions of the brain were quickly microdissected, tissues collected, and flash frozen in liquid nitrogen. Peripheral tissues and all brain were homogenized using MP homogenizer in Lysis Buffer (Cell lysis buffer: 1% Triton X-100, 50 mM HEPES pH 7.4, 100 mM NaCl, 2 mM EDTA, 10 mM Beta-glycerophosphate, 10 mM Sodium pyrophosphate, and 1 protease inhibitor) at 4 °C. Synaptic proteins and mTORC1 analyses in each brain region were conducted on crude synaptoneurosome preparations as previously described. Equal amounts of total protein from each sample were denatured and, resolved by SDS-PAGE. Membranes were imaged using the LI-COR imaging system. […]

CC(C)(C[C@H](N)C(=O)O)C(F)F [NV-5138, (S)-2-amino-5,5-difluoro-4,4-dimethylpentanoic acid]
off-target activity in selectivity panel [1]: no activity against any target
synaptic proteins Synapsin1, GluR1 and PSD95 versus vehicle [2]: significant increase
